What was measured:
human Nav1.1 = biological target: T1, human Nav1.1 (Homo sapiens, UniProt P35498); assay: Amplification of Nav1.1-derived voltage-dependent sodium current (Nav1.1 current), cell line stably expressing human Nav1.1, automated patch clamp; format: cell-based
T1 construct: host or cells: HEK293
Outline: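 Automated whole-cell voltage-clamp recordings used HEK293 cells stably expressing human Nav1.1, keeping only cells with >500 pA current, with currents evoked by ramp voltage. Compounds were applied in extracellular fluid with 1% DMSO, and amplification (%) was computed from peak current or AUC after versus before addition.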

human Nav1.5 = biological target: T2, human Nav1.5 (Homo sapiens, UniProt Q14524); assay: Amplification of Nav1.5-derived voltage-dependent sodium current (Nav1.5 current), cell line stably expressing human Nav1.5, automated patch clamp; format: cell-based
T2 construct: expressed in transfected cells; host or cells: CHO-K1 (T-REx System, ThermoFisher Scientific)
T2 sequence (Q14524 1-2015 isoform Q14524-2): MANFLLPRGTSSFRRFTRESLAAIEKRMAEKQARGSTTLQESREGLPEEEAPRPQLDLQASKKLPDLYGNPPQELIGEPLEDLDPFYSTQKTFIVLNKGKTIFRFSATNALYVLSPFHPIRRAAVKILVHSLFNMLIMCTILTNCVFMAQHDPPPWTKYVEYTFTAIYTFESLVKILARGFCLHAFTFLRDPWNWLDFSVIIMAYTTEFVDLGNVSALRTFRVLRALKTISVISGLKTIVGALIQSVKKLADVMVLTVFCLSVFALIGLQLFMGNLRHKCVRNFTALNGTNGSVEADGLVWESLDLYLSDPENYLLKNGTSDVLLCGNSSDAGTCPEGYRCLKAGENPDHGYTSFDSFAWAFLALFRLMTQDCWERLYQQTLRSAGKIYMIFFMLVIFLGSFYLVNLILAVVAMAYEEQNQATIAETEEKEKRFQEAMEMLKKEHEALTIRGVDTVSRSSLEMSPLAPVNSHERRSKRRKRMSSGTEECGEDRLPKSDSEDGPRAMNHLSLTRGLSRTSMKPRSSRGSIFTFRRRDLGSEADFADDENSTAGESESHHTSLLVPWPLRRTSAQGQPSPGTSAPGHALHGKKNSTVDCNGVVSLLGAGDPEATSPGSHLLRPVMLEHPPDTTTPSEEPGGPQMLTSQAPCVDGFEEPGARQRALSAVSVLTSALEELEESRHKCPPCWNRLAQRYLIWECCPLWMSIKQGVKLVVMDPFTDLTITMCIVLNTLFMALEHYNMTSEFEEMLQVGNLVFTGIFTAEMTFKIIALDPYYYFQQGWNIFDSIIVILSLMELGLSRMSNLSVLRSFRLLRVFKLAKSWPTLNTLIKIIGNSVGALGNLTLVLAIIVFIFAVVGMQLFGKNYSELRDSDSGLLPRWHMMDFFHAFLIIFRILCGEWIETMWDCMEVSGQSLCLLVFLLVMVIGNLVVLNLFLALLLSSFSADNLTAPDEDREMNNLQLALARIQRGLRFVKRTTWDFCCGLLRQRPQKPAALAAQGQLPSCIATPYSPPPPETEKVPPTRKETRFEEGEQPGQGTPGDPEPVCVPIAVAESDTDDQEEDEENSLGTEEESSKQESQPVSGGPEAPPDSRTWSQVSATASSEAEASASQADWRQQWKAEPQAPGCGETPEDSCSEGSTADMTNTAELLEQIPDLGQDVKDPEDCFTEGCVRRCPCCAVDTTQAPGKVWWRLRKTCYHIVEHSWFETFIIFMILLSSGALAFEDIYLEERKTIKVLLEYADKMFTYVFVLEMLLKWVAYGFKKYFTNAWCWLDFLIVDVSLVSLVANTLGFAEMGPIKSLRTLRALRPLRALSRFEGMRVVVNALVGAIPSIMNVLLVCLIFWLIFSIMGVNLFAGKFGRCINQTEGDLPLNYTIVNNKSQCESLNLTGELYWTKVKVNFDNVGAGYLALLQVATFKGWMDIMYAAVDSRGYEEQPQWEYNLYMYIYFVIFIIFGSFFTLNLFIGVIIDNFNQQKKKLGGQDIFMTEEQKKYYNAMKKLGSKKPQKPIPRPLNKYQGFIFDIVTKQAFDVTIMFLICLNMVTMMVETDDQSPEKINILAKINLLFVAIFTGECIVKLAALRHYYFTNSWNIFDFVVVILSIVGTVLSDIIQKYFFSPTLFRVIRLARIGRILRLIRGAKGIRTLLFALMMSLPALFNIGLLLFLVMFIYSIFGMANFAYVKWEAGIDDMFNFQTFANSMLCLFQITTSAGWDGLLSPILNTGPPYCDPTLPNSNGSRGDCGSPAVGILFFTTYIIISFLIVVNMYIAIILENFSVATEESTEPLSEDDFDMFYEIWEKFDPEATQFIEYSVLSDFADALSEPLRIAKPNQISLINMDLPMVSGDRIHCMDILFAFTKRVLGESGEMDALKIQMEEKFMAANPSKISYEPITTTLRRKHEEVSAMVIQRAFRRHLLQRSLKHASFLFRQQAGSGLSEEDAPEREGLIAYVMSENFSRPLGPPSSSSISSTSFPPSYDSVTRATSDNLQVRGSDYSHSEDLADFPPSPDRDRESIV

[1] = 10 μmol/L compound, change of the area under the curve of Nav1.1 current (Test Result 1)
[2] = 10 μmol/L compound, change of the area under the curve of Nav1.5 current (Test Result 1)
[3] = 10 μmol/L compound, change of the area under the curve of Nav1.1 current (Test Result 1), read-out: Nav1.1 current amplification rate (%)
[4] = 10 μmol/L compound, change of the area under the curve of Nav1.5 current (Test Result 1), read-out: Nav1.5 current amplification rate (%)
[5] = compound 3 μmol/L, HEK293 stably expressing human Nav1.1
[6] = compound 3 μmol/L, CHO-K1 stably expressing human Nav1.5

Nav1.1 current amplification rate (%) (human Nav1.1; [1]) | Compound | Nav1.5 current amplification rate (%) (human Nav1.5; [2]) | other results
92% | CC1CCN(c2ccc(=O)n(CC(=O)Nc3ccc4ncoc4c3)n2)CC1 [Example 73] | 1% | –
131% | CC1CCN(c2ccc(=O)n(CC(=O)Nc3cccc(-c4nccs4)c3)n2)CC1 [Example 80] | -3% | –
487% | COc1cc(C2=CCC(C)CC2)nn(CC(=O)N2CCc3c(N4CCOCC4)cccc32)c1=O (racemic) [Example 473] | 128% | –
192% | CN1CCN(c2cccc3c2CCN3C(=O)Cn2nc(C3=CCC(C)(C)CC3)ccc2=O)CC1 [Example 433] | 10% | –
– | Cc1cc(=O)n(CC(=O)Nc2ccc3ocnc3c2)nc1N1CCC(C)CC1 [Example 201] | – | activation at 10 µM (human Nav1.1; [3]): 139%; activation at 10 µM (human Nav1.5; [4]): 1%
– | COc1cnc(C)c(N2CCN(C(=O)Cn3nc(C4=CCC(C)CC4)ccc3=O)CC2)c1 (centres unmarked) [Example 418] | – | Nav1.1 current amplification rate (%) (human Nav1.1; [5]): 105%; Nav1.5 current amplification rate (%) (human Nav1.5; [6]): 7%
– | CC1CC=C(c2ccc(=O)n(CC(=O)N3CCc4c(CN(C)C5COC5)cccc43)n2)CC1 (racemic) [Example 276] | – | Nav1.1 current amplification rate (%) (human Nav1.1; compound 1 μmol/L, HEK293 stably expressing human Nav1.1): 207%; Nav1.5 current amplification rate (%) (human Nav1.5; compound 1 μmol/L, CHO-K1 stably expressing human Nav1.5): 47%
– | Cc1ncc(-c2cccc3c2CCN3C(=O)Cn2nc(C3=CCCCC3)ccc2=O)cn1 [Example 518] | – | activation at 1 µM (human Nav1.1; compound 1 μmol/L, HEK293 stably expressing human Nav1.1, read-out: Nav1.1 current amplification rate (%)): 344%; activation at 1 µM (human Nav1.5; compound 1 μmol/L, CHO-K1 stably expressing human Nav1.5, read-out: Nav1.5 current amplification rate (%)): 9%
273% | CC1CC=C(c2ccc(=O)n(CC(=O)N3CC=C(c4cncc(F)c4)CC3)n2)CC1 (racemic) [Example 397] | 49% | –
233% | COc1cc(-c2cc(Cl)cs2)nn(CC(=O)Nc2ccn3ccnc3c2)c1=O [Example 466] | 38% | –
– | O=C(Cn1nc(N2CCCC3(CCC3)C2)ccc1=O)Nc1cccc(-c2nccs2)c1 [Example 134] | – | activation at 10 µM (human Nav1.1; [3]): 44%; activation at 10 µM (human Nav1.5; [4]): -5%
– | CC1CC=C(c2ccc(=O)n(CC(=O)N3CCc4c(C5CN(C6COC6)C5)cccc43)n2)CC1 (racemic) [Example 301] | – | Nav1.1 current amplification rate (%) (human Nav1.1; [5]): 410%; Nav1.5 current amplification rate (%) (human Nav1.5; [6]): 55%
131% | CC1CCN(c2ccc(=O)n(CC(=O)Nc3ccn4nccc4c3)n2)CC1 [Example 71] | 13% | –
71% | CC1CC=C(c2ccc(=O)n(CC(=O)N3CCC(c4ccncc4)CC3)n2)CC1 (racemic) [Example 259] | 2% | –
– | CC1CC=C(c2ccc(=O)n(CC(=O)Nc3cc4nccn4cn3)n2)CC1 (racemic) [Example 328] | – | Nav1.1 current amplification rate (%) (human Nav1.1; [5]): 58%; Nav1.5 current amplification rate (%) (human Nav1.5; [6]): 21%
420% | COc1cc(-c2cc(Cl)cs2)nn(CC(=O)N2CCc3c(N4CCOCC4)cccc32)c1=O [Example 479] | 135% | –
– | O=C(Cn1nc(N2CCC3C(C2)C3(F)F)ccc1=O)Nc1ccc2ocnc2c1 (centres unmarked) [Example 161] | – | activation at 10 µM (human Nav1.1; [3]): 21%; activation at 10 µM (human Nav1.5; [4]): -1%
49% | CC1CCN(c2ccc(=O)n(CC(=O)Nc3ccnc(N4CCOCC4)c3)n2)CC1 [Example 66] | 31% | –
49% | CC1CCN(c2ccc(=O)n(CC(=O)Nc3cncc(Cl)c3)n2)CC1 [Example 63] | 3% | –
– | COc1cc(N2CCN(C(=O)Cn3nc(C4=CCC(C)CC4)ccc3=O)CC2)ccc1F (centres unmarked) [Example 413] | – | Nav1.1 current amplification rate (%) (human Nav1.1; [5]): 27%; Nav1.5 current amplification rate (%) (human Nav1.5; [6]): 1%
– | O=C(Cn1nc(N2CCCCCC2)ccc1=O)Nc1ccnc(C(F)(F)F)c1 [Example 120] | – | activation at 10 µM (human Nav1.1; [3]): 176%; activation at 10 µM (human Nav1.5; [4]): 5%
187% | CC1CCN(c2ccc(=O)n(CC(=O)N3CCc4cc(N5CCOCC5)ccc43)n2)CC1 [Example 89] | 34% | –
175% | CC1(C)CC=C(c2ccc(=O)n(CC(=O)N3CCN(c4cncc(F)c4)CC3)n2)C1 [Example 483] | 7% | –
– | COc1ccc(N2CCN(C(=O)Cn3nc(C4=CCC(C)CC4)ccc3=O)CC2)cn1 (centres unmarked) [Example 407] | – | Nav1.1 current amplification rate (%) (human Nav1.1; [5]): 113%; Nav1.5 current amplification rate (%) (human Nav1.5; [6]): 6%

Compound | Nav1.1 current amplification rate (%) (human Nav1.1; [1]) | Nav1.5 current amplification rate (%) (human Nav1.5; [2]) | other results
CC1CCN(c2ccc(=O)n(CC(=O)Nc3ccnc(C(F)(F)F)c3)n2)CC1 [Example 52] | 248% | 19% | –
